Data published in patent publication US8501792B2, “Treating cancer with desthiazolyl ritonavir” (priority 2008, dated 2013).
Read-outs that look alike come from different tables or passages of the source.

Assays:
MCF7-her2 line = test: MTT proliferation assay, MCF7-her2 line; format: cell-based; settings: MCF7-her2 line over-expressing her2; MTT after 48 h
MCF7 (ER+) = test: MTT proliferation assay, MCF7; format: cell-based; settings: Homo sapiens
Experimental: (§1) Cells (n=2000/well) were seeded in 96 well plates with drug or vehicle (DMSO) on D1 and after 48 h the cell number was determined by MTT assay.

[1] = test system: MDA-MB-231 (triple negative); test: MTT proliferation assay, MDA-MB-231; format: cell-based; settings: Homo sapiens
Experimental: as §1

SKBR3 (ER-/Her2+) = test: MTT proliferation assay, SKBR3; format: cell-based; settings: Homo sapiens, SK-BR-3, Example 6, MTT after 48 h
Experimental: M1 inhibition of proliferation of MCF7 (ER+), T47D (ER+), MDA-MB-231 (triple negative), SKBR3 (ER−/Her2+), and the non-transformed mammary line MCF10A were studied. Cells (n=2000/well) were seeded in 96 well plates with drug or vehicle (DMSO) on D1 and after 48 h the cell number was determined by MTT assay.

ER+ lines = test: MTT proliferation assay, ER+ lines (IC90); format: cell-based; settings: difference to ritonavir, read-out: IC90 values, amount less than ritonavir
Experimental: M1 inhibition of proliferation of MCF7, T47D and MDA-MB-231 cell lines was studied. Cells (n=2000/well) were seeded in 96 well plates with drug or vehicle (DMSO) on D1 and after 48 h the cell number was determined by MTT assay. Each assay was performed with 8 measurements for each data point (See FIG. 1, wherein graph A corresponds to MCF7, graph B corresponds to T47D, and graph C corresponds to MDA-MB-231).

[2] = test system: MCF7 breast cancer cell line; test: Annexin V-FITC/PI apoptosis flow cytometry, MCF7; format: cell-based; settings: for early apoptotic cells: preliminary flow cytometry apoptosis studies; for UR % Late Apoptosis / LR % Early Apoptosis: 48 hours; for fraction of apoptotic cells (early, lower right quadrant): at the ritonavir IC50 (30 μM), FIG. 2
Experimental: Induction of apoptosis can be determined using the Annexin V-FITC/PI apoptosis detection kit (Oncagene, Boston, Mass.). For example, after plating at 5×10^5 in a 100-mm plate, cancer cells can be grown for 48 hours in complete medium in presence of a drug, including a compound or formula 1, and a control, such as vehicle (DMSO). The culture and drug exposure conditions for the apoptosis assays can be done across a range of 5 to 60 μmol/L drug. Cells can be harvested by trypsin treatment, washed with complete medium to neutralize the trypsin, and stained with PI and Annexin V-FITC. The events can then be analyzed using FACScan analysis and CellQuest software (Becton Dickinson). See Example 2.
(§2) Induction of apoptosis was studied in a MCF7 breast cancer cell line. Apoptotic cells were detected using an Annexin V-FITC/PI apoptosis detection kit (Oncagene, Boston, Mass.). After plating at 5×10^5 in a 100-mm plate, the cells were grown for 48 hours in complete medium in presence of M1, ritonavir, or vehicle (DMSO). The culture and drug exposure conditions for the apoptosis assays were done across a range of 5 to 60 μmol/L M1 and ritonavir. Cells were harvested by trypsin treatment, washed with complete medium to neutralize the trypsin, and stained with PI and Annexin V-FITC. A total of 1×10^4 events were analyzed per assay by FACScan analysis using CellQuest software (Becton Dickinson). Replicate assays were done to confirm the results.

T47D (ER+) = test: Annexin V-FITC/PI apoptosis flow cytometry, T47D; format: cell-based
Experimental: as §2
(§3) A similar study was performed using T47D (ER+), MDA-MB-231 (triple negative) and SKBR3 (ER−/Her2+) cell lines were performed as above.

[3] = test system: MDA-MB-231 (triple negative); test: Annexin V-FITC/PI apoptosis flow cytometry, MDA-MB-231; format: cell-based
Experimental: as §2, §3

T47D cell line = test: Induction of reactive oxygen species, flow cytometry; format: cell-based; settings: 30 μM, 24 hours, FIG. 3
Experimental: Production of ROS can be analyzed using flow cytometry. For example, induction of ROS, including peroxide and superoxide, can be studied in cancer cell line. Cells can be seeded in 6 well plates (˜80,000 cells/well) using the appropriate medium, and exposed to a drug for 24 hours. Subsequently, the medium can be removed from the wells and the cells can then be exposed to DHE (2 μM in PBS) or Carboxy-H2-DCFDA (10 μM in PBS) for 30 minutes. Cells can then be trypsinized, washed two times with PBS and analyzed by flow cytometry. Additional cells can be exposed to H2O2 (250 μM) for 2 hours as a positive control for ROS production. See Example 3.
Induction of Reactive Oxygen Species (ROS), including peroxide and superoxide, were studied in the T47D cell line. Cells were seeded in 6 well plates (˜80,000 cells/well) using the appropriate medium, (DMEM with 10% FBS, 1% L-Glu, 1% Sodium Piruvate, and 1% Pen-strep) and exposed to ritonavir (30 μM) and M1 (30 μM) for 24 hours. Subsequently, the medium was removed from the wells and the cells were exposed to DHE (2 μM in PBS) or Carboxy-H2-DCFDA (10 μM in PBS) for 30 minutes. Cells were then trypsinized, washed two times with PBS and analyzed by flow cytometry. Additional cells were exposed to H2O2 (250 μM) for 2 hours as a positive control for ROS production.

HER2 = test: Surface HER2 flow cytometry in SKBR3 cells; format: cell-based
Experimental: SKBR3 cells were plated at a density of 80,000 cells/well in 6-well plates. After 18 hours, cells were exposed to ritonavir (33 μM), Desthiazolyl Ritonavir (M1) (33 μM), or DMSO. After 24 hours, cells were trypsinized, spun down, and resuspended in 50 μL of Staining Buffer (PBS 1% BSA). Cells were then incubated with anti-HER2 Ab FITC (Chemicon International; MAB4083F) for 30 minutes (on-ice and in the dark). Control cells were incubated with mouse IgG1 FITC (Biolytex). Cells were washed two times with Washing Buffer (PBS 0.1% Tween-20), resuspended in 100 μL of PBS, and acquired using FACSCalibur flow cytometer.

HIV = settings: MT-4 cell based assay; Denissen et al. 1997; cited from earlier work
[4] = Table 1, below the IC50 for both drugs, 45 μM
[5] = Table 3, at the ritonavir IC50, 30 μM
[6] = Table 4, above the IC50 for both drugs, 45 μM

| SMILES | IC50 (MCF7-her2 line) [µM] | IC50 (SKBR3 (ER-/Her2+)) [µM] | early apoptotic cells ([2]; 45 μM) [%] | UR % Late Apoptosis ([2]; Table 1, 45 μM) [%] | LR % Early Apoptosis [2, 4] [%] | LR % Early Apoptosis ([2]; Table 2, at the M1 IC50, 15 μM) [%] | UR % Late Apoptosis ([2]; Table 2, at the M1 IC50, 15 μM) [%] | LR % Early Apoptosis [2, 5] [%] | UR % Late Apoptosis [2, 5] [%] | LR % Early Apoptosis [2, 6] [%] | UR % Late Apoptosis [2, 6] [%] | fraction of apoptotic cells (early, lower right quadrant) [2] [%] | fraction of apoptotic cells (T47D (ER+)) [%] | fraction of apoptotic cells [3] [%] | ROS production (T47D cell line) | further results |
| --- | --- | --- | --- | --- | --- | --- | --- | --- | --- | --- | --- | --- | --- | --- | --- | --- |
| CC(C)c1nc(CN(C)C(=O)NC(C(=O)NC(Cc2ccccc2)CC(O)C(N)Cc2ccccc2)C(C)C)cs1 (stereo not drawn) [M1, desthiazolyl ritonavir] | 25 | 12 | 28 | 34.74 | 27.46 | 9.42 | 10.73 | 39.74 | 20.00 | 31.95 | 21.31 | 32 | 20 | 40 | induces ROS production | IC50 (MCF7 (ER+); MCF7, Example 6, MTT after 48 h, read-out: IC50, proliferation): 15 µM; IC50 ([1]; Example 6, MTT after 48 h, read-out: IC50, proliferation): 22 µM; IC90 (ER+ lines): > 30 µM; anti-HER2 functionality / expression of surface HER2 (HER2; SKBR3, 33 μM, 24 hours, FIG. 7): exhibited anti-HER2 functionality; reduction of the expression of surface HER2 (HER2; SKBR3 line, P<0.05): up to 80%; inhibition of HIV replication (HIV): does not inhibit HIV replication |
| CC(C)c1nc(CN(C)C(=O)N[C@H](C(=O)N[C@@H](Cc2ccccc2)C[C@H](O)[C@H](Cc2ccccc2)NC(=O)OCc2cncs2)C(C)C)cs1 [ritonavir] | 25 | 33 | 14 | 23.0 | 14.12 | 13.83 | 11.16 | 15.11 | 7.95 | 17.10 | 7.30 | 17 | 13 | 20 | does not | IC50 (MCF7 (ER+); MCF7, 48 h, read-out: IC50, proliferation): 28 µM; IC50 (MCF7 (ER+); MCF7, as quoted in Example 2, read-out: IC50): 30 µM; IC50 ([1]; as quoted in Example 4, read-out: IC50): 40 µM |
